10 compounds from US11834463B2, “High affinity macrocyclic FKB51-inhibitors for treatment of psychiatric disorders” (priority 2020, dated 2023) can be followed below.

Read-outs that look alike come from different tables or passages of the source.

Assay [1] concerns the target FKBP12.6 (Homo sapiens, UniProt P68106). Nature of the assay: competitive fluorescence polarization assay, binding to FKBP12.6. Here is the method: (§1) All macrocyclic compounds were tested in a competitive fluorescence polarization assay for binding towards FKBP51 as well as the homologs FKBP12, FKBP12.6 and FKBP52 (Table 1).
(§2) Example 8: […] of the Macrocyclic FKBP51 Ligands by SPPS

Assay [2] concerns the target FKBP12 (Homo sapiens, UniProt P62942). Nature of the assay: competitive fluorescence polarization assay, binding to FKBP12. How it is done:
as §1, §2

Assay [3] concerns the target T1, FKBP51FK1 (Homo sapiens, UniProt Q13451).
T1 sequence (Q13451 42-130 limits assumed): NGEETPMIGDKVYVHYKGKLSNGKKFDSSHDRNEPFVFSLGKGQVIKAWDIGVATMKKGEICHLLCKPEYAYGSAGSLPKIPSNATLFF
The experiment in a line: biochemical. How it is done:
as §1, §2

The mark [4] stands for this setting: Table 1, competitive Fluorescence Polarization Assay, read-out: Ki [nM] FKBP12.6.
Where [5] appears, read: Table 1, competitive Fluorescence Polarization Assay, read-out: Ki [nM] FKBP12.
Setting [6] is: Ki [nM] FKBP51FK1, Table 1, competitive Fluorescence Polarization Assay.

Sequence of FKBP12.6 (P68106 whole entry): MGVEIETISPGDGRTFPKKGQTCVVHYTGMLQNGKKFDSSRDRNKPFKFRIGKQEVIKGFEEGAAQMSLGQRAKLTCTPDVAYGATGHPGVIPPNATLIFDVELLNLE
Sequence of FKBP12 (P62942 whole entry): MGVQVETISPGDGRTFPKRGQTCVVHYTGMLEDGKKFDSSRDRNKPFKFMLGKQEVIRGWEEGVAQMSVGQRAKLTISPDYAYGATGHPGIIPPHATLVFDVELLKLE

Regarding `COc1ccc(CC[C@H]2OC(=O)[C@@H]3CCCCN3C(=O)[C@@H](C3CCCCC3)c3cc(OC)c(OC)c(c3)OCCCC(=O)COc3cccc2c3)cc1OC` [Compound 61b], the inhibitory constant (Ki) was determined as 37 nM in assay [1] (setting [4]), 58 nM in assay [2] (setting [5]) and 28 nM in assay [3] (setting [6]).

As for `COc1ccc(CC[C@H]2OC(=O)[C@@H]3CCCCN3C(=O)[C@@H](C3CCCCC3)c3cc(OC)c(OC)c(c3)OCC/C=C\COc3cccc2c3)cc1OC` [36-(Z)], the inhibition constant Ki in assay [1] (setting [4]) amounted to 96 nM; in assay [2] (setting [5]), 118 nM; in assay [3] (setting [6]), 77 nM.

On to `COc1ccc(CC[C@H]2OC(=O)[C@@H]3CCCCN3C(=O)[C@@H](C3CCCCC3)c3cc(OC)c(c(OC)c3)OCCCCOc3cccc2c3)cc1OC` [Compound 39], for which the inhibition constant Ki in assay [1] (setting [4]) came out at 191 nM; in assay [2] (setting [5]) it was 159 nM; in assay [3] (setting [6]) it was 53 nM.

On to `COc1ccc(CC[C@H]2OC(=O)[C@@H]3CCCCN3C(=O)[C@@H](C3CCCCC3)c3cc(OC)c(c(OC)c3)OCCOC/C=C\COc3cccc2c3)cc1OC` [33-(Z)], for which the inhibition constant (Ki) in assay [1] (setting [4]) was determined as 186 nM; in assay [2] (setting [5]), 309 nM.

For `COc1ccc(CC[C@H]2OC(=O)[C@@H]3CCCCN3C(=O)[C@@H](C3CCCCC3)c3cc(OC)c(c(OC)c3)OCCOC/C=C/COc3cccc2c3)cc1OC` [33-(E)], the Ki in assay [1] (setting [4]) stood at 361 nM; in assay [2] (setting [5]) it was 534 nM.

For the compound `COc1ccc(CC[C@H]2OC(=O)[C@@H]3CCCCN3C(=O)[C@@H](C3CCCCC3)NC(=O)C3(CC3)NC(=O)COc3cccc2c3)cc1OC` [Compound 86, (2′R,5′S,12′R)-12′-cyclohexyl-2′-[2-(3,4-dimethoxyphenyl)ethyl]-3′,19′-dioxa-10′,13′,16′-triazaspiro[cyclopropane-1,15′-tricyclo[18.3.1.0^5,10]tetracosane]-1′(24′),20′,22′-triene-4′,11′,14′,17′-tetrone], the Ki is greater than 80000 nM in assay [1] (Table 2, read-out: FKBP12.6 Ki) and greater than 80000 nM in assay [2] (Table 2, read-out: FKBP12 Ki).

Consider `COc1cc2cc(c1)[C@@H](CCc1ccc(OC)c(OC)c1)OC(=O)[C@@H]1CCCCN1C(=O)[C@@H](C1CCCCC1)NC(=O)C(C)(C)NC(=O)CO2` [Compound 104, (2R,5S,12R)-12-cyclohexyl-2-[2-(3,4-dimethoxyphenyl)ethyl]-22-methoxy-15,15-dimethyl-3,19-dioxa-10,13,16-triazatricyclo[18.3.1.0^5,10]tetracosa-1(24),20,22-triene-4,11,14,17-tetrone], for which the “affinity (in words)” value in assay [3] is “bound similarly to the glycine derivative 83”. Further, affinity in assay [3] (FKBP51FK1 Ki [μM], Table 2, [a] standard error from three, [c] error from two independent measurements) was put at a Ki of 390 nM.

Take `COc1ccc(CC[C@H]2OC(=O)[C@@H]3CCCCN3C(=O)[C@@H](C3CCCCC3)NC(=O)CCCNC(=O)COc3cccc2c3)cc1OC` [Compound 95, (2R,5S,12R)-12-cyclohexyl-2-[2-(3,4-dimethoxyphenyl)ethyl]-3,21-dioxa-10,13,18-triazatricyclo[20.3.1.0^5,10]hexacosa-1(26),22,24-triene-4,11,14,19-tetrone]: in assay [3], the “affinity (in words)” value is on record as “no binding”.

As for `COc1ccc(CC[C@H]2OC(=O)[C@@H]3CCCCN3C(=O)[C@@H](C3CCCCC3)NC(=O)[C@@H](C)NC(=O)COc3cccc2c3)cc1OC` [Compound 84, (2R,5S,12R,15R)-12-cyclohexyl-2-[2-(3,4-dimethoxyphenyl)ethyl]-15-methyl-3,19-dioxa-10,13,16-triazatricyclo[18.3.1.0^5,10]tetracosa-1(24),20,22-triene-4,11,14,17-tetrone], the inhibition constant Ki in assay [1] (Table 2, read-out: FKBP12.6 Ki) is greater than 80000 nM; in assay [2] (Table 2, read-out: FKBP12 Ki) it was greater than 80000 nM.

Consider `COc1ccc(CC[C@H]2OC(=O)[C@@H]3CCCCN3C(=O)[C@@H](C3CCCCC3)NC(=O)[C@H]3CCCN3C(=O)COc3cccc2c3)cc1OC` [Compound 90, (9R,12R,19S,22R)-12-cyclohexyl-22-[2-(3,4-dimethoxyphenyl)ethyl]-2,21-dioxa-5,11,14-triazatetracyclo[21.3.1.0^5,9.0^14,19]heptacosa-1(26),23(27),24-triene-4,10,13,20-tetrone], for which the inhibition constant (Ki) in assay [1] (Table 2, read-out: FKBP12.6 Ki) is greater than 80000 nM; in assay [2] (Table 2, read-out: FKBP12 Ki), greater than 80000 nM.
